In ChEMBL document CHEMBL6083215, “Structure elucidation, absolute configuration, and biological evaluation of cyclic peroxides from the sponge Plakinastrella sp” (2024):

Assays:
Type in all cases: functional
[1] = test system: BT-549; assay: Growth inhibition of human BT-549 cells
[2] = test system: Hs-578T; assay: Growth inhibition of human HS 578T cells
[3] = test system: LOX IMVI; assay: Growth inhibition of human LOX IMVI cells
[4] = test system: UO-31; assay: Growth inhibition of human UO-31 cells
[5] = test system: HL-60(TB); assay: Growth inhibition of human HL-60(TB) cells
[6] = test system: MCF7; assay: Growth inhibition of human MCF7 cells
[7] = test system: MDA-MB-231; assay: Growth inhibition of human MDA-MB-231 cells
[8] = test system: MDA-MB-468; assay: Growth inhibition of human MDA-MB-468 cells
[9] = test system: T47D; assay: Growth inhibition of human T47D cells
[10] = test system: SF-268; assay: Growth inhibition of human SF-268 cells
[11] = test system: SF-295; assay: Growth inhibition of human SF-295 cells
[12] = test system: SF-539; assay: Growth inhibition of human SF-539 cells
[13] = test system: SNB-19; assay: Growth inhibition of human SNB-19 cells
[14] = test system: SNB-75; assay: Growth inhibition of human SNB-75 cells
[15] = test system: U-251; assay: Growth inhibition of human U-251 cells
[16] = test system: COLO 205; assay: Growth inhibition of human COLO 205 cells
[17] = test system: HCC 2998; assay: Growth inhibition of human HCC 2998 cells
[18] = test system: HCT-116; assay: Growth inhibition of human HCT-116 cells
[19] = test system: HCT-15; assay: Growth inhibition of human HCT-15 cells
[20] = test system: HT-29; assay: Growth inhibition of human HT-29 cells
[21] = test system: KM12; assay: Growth inhibition of human KM12 cells
[22] = test system: SW-620; assay: Growth inhibition of human SW620 cells
[23] = test system: 786-0; assay: Growth inhibition of human 786-0 cells
[24] = test system: A498; assay: Growth inhibition of human A498 cells
[25] = test system: ACHN; assay: Growth inhibition of human ACHN cells
[26] = test system: CAKI-1; assay: Growth inhibition of human CAKI-1 cells
[27] = test system: RXF 393; assay: Growth inhibition of human RXF 393 cells
[28] = test system: SN12C; assay: Growth inhibition of human SN12C cells
[29] = test system: TK-10; assay: Growth inhibition of human TK-10 cells
[30] = test system: CCRF-CEM; assay: Growth inhibition of human CCRF-CEM cells
[31] = test system: K562; assay: Growth inhibition of human K562 cells
[32] = test system: MOLT-4; assay: Growth inhibition of human MOLT-4 cells
[33] = test system: RPMI-8226; assay: Growth inhibition of human RPMI-8226 cells
[34] = test system: SR; assay: Growth inhibition of human SR cells
[35] = test system: A549; assay: Growth inhibition of human A549 cells
[36] = test system: EKVX; assay: Growth inhibition of human EKVX cells
[37] = test system: HOP-62; assay: Growth inhibition of human HOP-62 cells
[38] = test system: HOP-92; assay: Growth inhibition of human HOP-92 cells
[39] = test system: NCI-H226; assay: Growth inhibition of human NCI-H226 cells
[40] = test system: NCI-H23; assay: Growth inhibition of human NCI-H23 cells
[41] = test system: NCI-H322M; assay: Growth inhibition of human NCI-H322M cells
[42] = test system: NCI-H460; assay: Growth inhibition of human NCI-H460 cells
[43] = test system: NCI-H522; assay: Growth inhibition of human NCI-H522 cells
[44] = test system: M14; assay: Growth inhibition of human M14 cells
[45] = test system: Malme-3M; assay: Growth inhibition of human Malme-3M cells
[46] = test system: MDA-MB-435; assay: Growth inhibition of human MDA-MB-435 cells
[47] = test system: SK-MEL-2; assay: Growth inhibition of human SK-MEL-2 cells
[48] = test system: SK-MEL-28; assay: Growth inhibition of human SK-MEL-28 cells
[49] = test system: SK-MEL-5; assay: Growth inhibition of human SK-MEL-5 cells
[50] = test system: UACC-257; assay: Growth inhibition of human UACC-257 cells
[51] = test system: UACC-62; assay: Growth inhibition of human UACC-62 cells
[52] = test system: IGROV-1; assay: Growth inhibition of human IGROV-1 cells
[53] = test system: OVCAR-3; assay: Growth inhibition of human OVCAR-3 cells
[54] = test system: OVCAR-4; assay: Growth inhibition of human OVCAR-4 cells
[55] = test system: OVCAR-5; assay: Growth inhibition of human OVCAR-5 cells
[56] = test system: OVCAR-8; assay: Growth inhibition of human OVCAR-8 cells
[57] = test system: SK-OV-3; assay: Growth inhibition of human SK-OV-3 cells
[58] = test system: NCI/ADR-RES; assay: Growth inhibition of human NCI-ADR-RES cells
[59] = test system: DU-145; assay: Growth inhibition of human DU-145 cells
[60] = test system: PC-3; assay: Growth inhibition of human PC-3 cells

## CCCCCCCCC/C=C(/C)C[C@]1(C)C[C@H](C)[C@@H](CC(=O)O)OO1
[1]
  GI50: 0.98 µM
[2]
  GI50: 0.98 µM
[3]
  GI50: 0.11 µM
[4]
  GI50: 0.19 µM
[5]
  GI50: 0.22 µM
[6]
  GI50: 0.98 µM
[7]
  GI50: 0.98 µM
[8]
  GI50: 0.98 µM
[9]
  GI50: 0.98 µM
[10]
  GI50: 0.98 µM
[11]
  GI50: 0.98 µM
[12]
  GI50: 0.98 µM
[13]
  GI50: 0.98 µM
[14]
  GI50: 0.98 µM
[15]
  GI50: 0.98 µM
[16]
  GI50: 0.98 µM
[17]
  GI50: 0.98 µM
[18]
  GI50: 0.98 µM
[19]
  GI50: 0.98 µM
[20]
  GI50: 0.98 µM
[21]
  GI50: 0.98 µM
[22]
  GI50: 0.98 µM
[23]
  GI50: 0.98 µM
[24]
  GI50: 0.98 µM
[25]
  GI50: 0.98 µM
[26]
  GI50: 0.98 µM
[27]
  GI50: 0.98 µM
[28]
  GI50: 0.98 µM
[29]
  GI50: 0.98 µM
[30]
  GI50: 0.98 µM
[31]
  GI50: 0.98 µM
[32]
  GI50: 0.98 µM
[33]
  GI50: 0.98 µM
[34]
  GI50: 0.98 µM
[35]
  GI50: 0.98 µM
[36]
  GI50: 0.98 µM
[37]
  GI50: 0.98 µM
[38]
  GI50: 0.98 µM
[39]
  GI50: 0.98 µM
[40]
  GI50: 0.98 µM
[41]
  GI50: 0.98 µM
[42]
  GI50: 0.98 µM
[43]
  GI50: 0.98 µM
[44]
  GI50: 0.98 µM
[45]
  GI50: 0.98 µM
[46]
  GI50: 0.98 µM
[47]
  GI50: 0.98 µM
[48]
  GI50: 0.98 µM
[49]
  GI50: 0.98 µM
[50]
  GI50: 0.98 µM
[51]
  GI50: 0.98 µM
[52]
  GI50: 0.98 µM
[53]
  GI50: 0.98 µM
[54]
  GI50: 0.98 µM
[55]
  GI50: 0.98 µM
[56]
  GI50: 0.98 µM
[57]
  GI50: 0.98 µM
[58]
  GI50: 0.98 µM
[59]
  GI50: 0.98 µM
[60]
  GI50: 0.98 µM

## COc1cccc2c1C(=O)c1c(O)c3c(c(O)c1C2=O)C[C@@](O)(C(=O)CO)C[C@@H]3O[C@H]1C[C@H](N)[C@H](O)[C@H](C)O1 [DOXORUBICIN]
[1]
  GI50: 0.12 µM
[2]
  GI50: 0.12 µM
[6]
  GI50: 0.12 µM
[7]
  GI50: 0.12 µM
[8]
  GI50: 0.12 µM
[9]
  GI50: 0.12 µM
[10]
  GI50: 0.12 µM
[11]
  GI50: 0.12 µM
[12]
  GI50: 0.12 µM
[13]
  GI50: 0.12 µM
[14]
  GI50: 0.12 µM
[15]
  GI50: 0.12 µM
[16]
  GI50: 0.12 µM
[17]
  GI50: 0.12 µM
[18]
  GI50: 0.12 µM
[19]
  GI50: 0.12 µM
[20]
  GI50: 0.12 µM
[21]
  GI50: 0.12 µM
[22]
  GI50: 0.12 µM
[23]
  GI50: 0.12 µM
[24]
  GI50: 0.12 µM
[25]
  GI50: 0.12 µM
[26]
  GI50: 0.12 µM
[27]
  GI50: 0.12 µM
[28]
  GI50: 0.12 µM
[29]
  GI50: 0.12 µM
[30]
  GI50: 0.12 µM
[31]
  GI50: 0.12 µM
[32]
  GI50: 0.12 µM
[33]
  GI50: 0.12 µM
[34]
  GI50: 0.12 µM
[35]
  GI50: 0.12 µM
[36]
  GI50: 0.12 µM
[37]
  GI50: 0.12 µM
[38]
  GI50: 0.12 µM
[39]
  GI50: 0.12 µM
[40]
  GI50: 0.12 µM
[41]
  GI50: 0.12 µM
[42]
  GI50: 0.12 µM
[43]
  GI50: 0.12 µM
[44]
  GI50: 0.12 µM
[45]
  GI50: 0.12 µM
[46]
  GI50: 0.12 µM
[47]
  GI50: 0.12 µM
[48]
  GI50: 0.12 µM
[49]
  GI50: 0.12 µM
[50]
  GI50: 0.12 µM
[51]
  GI50: 0.12 µM
[52]
  GI50: 0.12 µM
[53]
  GI50: 0.12 µM
[54]
  GI50: 0.12 µM
[55]
  GI50: 0.12 µM
[56]
  GI50: 0.12 µM
[57]
  GI50: 0.12 µM
[58]
  GI50: 0.12 µM
[59]
  GI50: 0.12 µM
[60]
  GI50: 0.12 µM
